Source: ChEMBL document CHEMBL5500337, “Synthesis and anti-liver fibrosis activity of imidazole and thiazole compounds containing amino acids” (Eur J Med Chem, 2024)
pIC50: −log10 of the molar value. Each block holds one compound with its values, some of them ahead of it. Activity calls are given as the source filed them. The rule behind the calls is not given here.

Key:
[1] = Tmax in male Sprague-Dawley rat at 4 mg/kg, iv measured after 8 hrs by UPLC-MS/MS analysis; type: ADME, organism-based; conditions: in vivo
LX-2 [2] = experiment: Anti-fibrotic activity in human LX-2 cells assessed as inhibition of alpha-SMA mRNA expression at 5 uM preincubated with compound for 1 hrs followed by TGFbeta addition and measured after 24 hrs by RT-PCR analysis; type: functional, cell-based; conditions: time 25.0 hrs
LX-2 [3] = experiment: Anti-fibrotic activity in human LX-2 cells assessed as reduction in collagen I protein expression at 20 uM preincubated with compound for 1 hrs followed by TGFbeta addition and measured after 24 hrs by Western blot analysis; type: functional, cell-based; conditions: time 25.0 hrs
[4] = Clearance in male Sprague-Dawley rat at 15 mg/kg, po measured after 8 hrs by UPLC-MS/MS analysis; type: ADME, organism-based; conditions: in vivo
LX-2 [5] = experiment: Anti-fibrotic activity in human LX-2 cells assessed as reduction in alpha-SMA protein expression at 20 uM preincubated with compound for 1 hrs followed by TGFbeta addition and measured after 24 hrs by Western blot analysis; type: functional, cell-based; conditions: time 25.0 hrs
[6] = Tmax in male Sprague-Dawley rat at 15 mg/kg, po measured after 8 hrs by UPLC-MS/MS analysis; type: ADME, organism-based; conditions: in vivo
[7] = Cmax in male Sprague-Dawley rat at 4 mg/kg, iv measured after 8 hrs by UPLC-MS/MS analysis; type: ADME, organism-based; conditions: in vivo
[8] = MRT (0 to t) in male Sprague-Dawley rat at 4 mg/kg, iv measured after 8 hrs by UPLC-MS/MS analysis; type: ADME, organism-based; conditions: in vivo
[9] = AUC (0 to infinity) in male Sprague-Dawley rat at 4 mg/kg, iv measured after 8 hrs by UPLC-MS/MS analysis; type: ADME, organism-based; conditions: in vivo
[10] = AUC (0 to t) in male Sprague-Dawley rat at 15 mg/kg, po measured after 8 hrs by UPLC-MS/MS analysis; type: ADME, organism-based; conditions: in vivo
LX-2 [11] = experiment: Cytotoxicity against human LX-2 cells assessed as reduction in cell viability upto 50 uM incubated for 24 hrs by MTT assay; type: toxicity, cell-based; conditions: lx-2, 24 h
[12] = Half-life in male Sprague-Dawley rat at 4 mg/kg, iv measured after 8 hrs by UPLC-MS/MS analysis; type: ADME, organism-based; conditions: in vivo
[13] = AUC (0 to t) in male Sprague-Dawley rat at 4 mg/kg, iv measured after 8 hrs by UPLC-MS/MS analysis; type: ADME, organism-based; conditions: in vivo
[14] = Oral bioavailability in male Sprague-Dawley rat at 15 mg/kg measured after 8 hrs by UPLC-MS/MS analysis; type: ADME, organism-based; conditions: in vivo
[15] = Half-life in male Sprague-Dawley rat at 15 mg/kg, po measured after 8 hrs by UPLC-MS/MS analysis; type: ADME, organism-based; conditions: in vivo
LX-2 [16] = experiment: Anti-fibrotic activity in human LX-2 cells assessed as inhibition of alpha-SMA expression preincubated with compound for 1 hrs followed by TGFbeta addition and measured after 24 hrs by DAPI staining based confocal laser scanning microscopic analysis; type: functional, cell-based; conditions: dose 5-20 µM, time 25.0 hrs
[17] = AUC (0 to infinity) in male Sprague-Dawley rat at 15 mg/kg, po measured after 8 hrs by UPLC-MS/MS analysis; type: ADME, organism-based; conditions: in vivo
[18] = MRT (0 to t) in male Sprague-Dawley rat at 15 mg/kg, po measured after 8 hrs by UPLC-MS/MS analysis; type: ADME, organism-based; conditions: in vivo
[19] = Clearance in male Sprague-Dawley rat at 4 mg/kg, iv measured after 8 hrs by UPLC-MS/MS analysis; type: ADME, organism-based; conditions: in vivo
[20] = Cmax in male Sprague-Dawley rat at 15 mg/kg, po measured after 8 hrs by UPLC-MS/MS analysis; type: ADME, organism-based; conditions: in vivo
[21] = target: Mitogen-activated protein kinase 14 (Homo sapiens, UniProt Q16539); experiment: Inhibition of human recombinant p38alpha expressed in Escherichia coli incubated for 60 mins in presence of ATP by microplate scintillation counter
LX-2 [22] = experiment: Anti-fibrotic activity in human LX-2 cells assessed as reduction in alpha-SMA protein expression at 5 uM preincubated with compound for 1 hrs followed by TGFbeta addition and measured after 24 hrs by Western blot analysis; type: functional, cell-based; conditions: time 25.0 hrs
LX-2 [23] = experiment: Cytotoxicity against human LX-2 cells assessed as reduction in cell viability upto 100 uM incubated for 24 hrs by MTT assay; type: toxicity, cell-based; conditions: lx-2, 24 h
LX-2 [24] = experiment: Cytotoxicity against human LX-2 cells assessed as reduction in cell viability at 6.25 uM incubated for 24 hrs by MTT assay; type: toxicity, cell-based; conditions: lx-2, 24 h
LX-2 [25] = experiment: Cytotoxicity against human LX-2 cells assessed as reduction in cell viability at 100 uM incubated for 24 hrs by MTT assay; type: toxicity, cell-based; conditions: lx-2, 24 h

Sequence of Mitogen-activated protein kinase 14 (Q16539 whole entry): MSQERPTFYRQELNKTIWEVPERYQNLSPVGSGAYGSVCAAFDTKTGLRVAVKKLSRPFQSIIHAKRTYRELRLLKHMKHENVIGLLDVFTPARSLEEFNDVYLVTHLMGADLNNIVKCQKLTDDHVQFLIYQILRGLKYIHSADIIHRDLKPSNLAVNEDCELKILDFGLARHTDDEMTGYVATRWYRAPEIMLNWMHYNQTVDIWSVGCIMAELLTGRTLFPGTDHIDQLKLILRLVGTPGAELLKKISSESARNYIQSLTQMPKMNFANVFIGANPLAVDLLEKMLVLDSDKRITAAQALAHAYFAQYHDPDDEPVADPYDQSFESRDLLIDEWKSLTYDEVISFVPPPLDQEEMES

Tmax [1]: 0 h
CL/F [4]: 109 mL/min/kg
Tmax [6]: 6.6 min
Cmax [7]: 43100 ng/mL
MRT last at 8 h [8]: 1.01 h
AUC [9]: 12802 ng·h/mL
AUC(0-t) at 8 h [10]: 1220 ng·h/mL
half-life [12]: 2.24 h
AUC(0-t) at 8 h [13]: 12500 ng·h/mL
F [14]: 2.59%
half-life [15]: 9.14 h
AUC [17]: 2667 ng·h/mL
MRT last at 8 h [18]: 2.79 h
clearance [19]: 5.23 mL/min/kg
Cmax [20]: 1390 ng/mL
Compound: Cc1cccc(-c2[nH]c(CNC(=O)[C@H](N)Cc3ccccc3)nc2-c2ccc3ncnn3c2)n1
Activity (LX-2 [2]): Active
Activity (LX-2 [3]): Active
Activity (LX-2 [5]): Active
Activity (LX-2 [11]): Non-Toxic
Activity (LX-2 [16]): Dose-Dependent Effect

pIC50 [21]: < 5.52
Compound: Cc1cccc(-c2nc(NC(=O)[C@@H]3CCCCN3)sc2-c2ccc3ncnn3c2)n1

pIC50 [21]: < 6.00
Compound: Cc1cccc(-c2[nH]c(CNC(=O)[C@H]3CCCCN3)nc2-c2ccc3ncnn3c2)n1

pIC50 [21]: < 5.52
Compound: Cc1cccc(-c2[nH]c(CNC(=O)[C@H](N)CC(C)C)nc2-c2ccc3ncnn3c2)n1

pIC50 [21]: < 5.52
Compound: Cc1cccc(-c2[nH]c(CNC(=O)[C@H](C)N)nc2-c2ccc3ncnn3c2)n1

pIC50 [21]: < 5.52
Compound: Cc1cccc(-c2[nH]c(CNC(=S)[C@@H](N)Cc3ccccc3)nc2-c2ccc3ncnn3c2)n1

pIC50 [21]: < 5.52
Compound: Cc1cccc(-c2nc(NC(=O)[C@H]3CCCCN3)sc2-c2ccc3ncnn3c2)n1

Compound: Cc1cccc(-c2nn3c(c2-c2ccnc4ccc(C(N)=O)cc24)CCC3)n1
Activity (LX-2 [22]): Active

pIC50 [21]: < 6.00
Compound: Cc1cccc(-c2nc(NC(=O)[C@@H](N)CC(C)C)sc2-c2ccc3ncnn3c2)n1
Activity (LX-2 [2]): Active
Activity (LX-2 [3]): Active
Activity (LX-2 [5]): Active
Activity (LX-2 [23]): Non-Toxic

pIC50 [21]: < 6.00
Compound: Cc1cccc(-c2nc(NC(=O)[C@H](C)N)sc2-c2ccc3ncnn3c2)n1

pIC50 [21]: < 5.52
Compound: Cc1cccc(-c2[nH]c(CNC(=O)[C@@H]3CCCCN3)nc2-c2ccc3ncnn3c2)n1

pIC50 [21]: < 6.00
Compound: Cc1cccc(-c2nc(NC(=S)[C@H](N)CC(C)C)sc2-c2ccc3ncnn3c2)n1

pIC50 [21]: < 5.52
Compound: Cc1cccc(-c2nc(NC(=O)[C@H](N)CC(C)C)sc2-c2ccc3ncnn3c2)n1
Activity (LX-2 [2]): Active
Activity (LX-2 [3]): Active
Activity (LX-2 [24]): Non-Toxic
Activity (LX-2 [5]): Active
Activity (LX-2 [25]): Toxic

pIC50 [21]: < 6.00
Compound: Cc1cccc(-c2nc(NC(=S)[C@@H](N)CC(C)C)sc2-c2ccc3ncnn3c2)n1

pIC50 [21]: < 5.52
Compound: Cc1cccc(-c2nc(NC(=O)[C@H](N)Cc3ccccc3)sc2-c2ccc3ncnn3c2)n1

pIC50 [21]: < 6.00
Compound: Cc1cccc(-c2[nH]c(CNC(=S)[C@H](N)Cc3ccccc3)nc2-c2ccc3ncnn3c2)n1

pIC50 [21]: < 5.52
Compound: Cc1cccc(-c2nc(NC(=O)[C@@H](N)Cc3ccccc3)sc2-c2ccc3ncnn3c2)n1

pIC50 [21]: < 5.52
Compound: Cc1cccc(-c2[nH]c(CNC(=O)[C@@H](N)CC(C)C)nc2-c2ccc3ncnn3c2)n1
